In ChEMBL document CHEMBL1154019, “Sulfonamides with the N-alkyl-N'-dialkylguanidine moiety as 5-HT7 receptor ligands” (Bioorg Med Chem Lett, 2009) one finds Ki and Ratio Ki data, which are given here for 14 compounds.

Assay [1] has as its target T1, 5-hydroxytryptamine receptor 1A (Rattus norvegicus, UniProt P19327).
T1 sequence (P19327 whole entry): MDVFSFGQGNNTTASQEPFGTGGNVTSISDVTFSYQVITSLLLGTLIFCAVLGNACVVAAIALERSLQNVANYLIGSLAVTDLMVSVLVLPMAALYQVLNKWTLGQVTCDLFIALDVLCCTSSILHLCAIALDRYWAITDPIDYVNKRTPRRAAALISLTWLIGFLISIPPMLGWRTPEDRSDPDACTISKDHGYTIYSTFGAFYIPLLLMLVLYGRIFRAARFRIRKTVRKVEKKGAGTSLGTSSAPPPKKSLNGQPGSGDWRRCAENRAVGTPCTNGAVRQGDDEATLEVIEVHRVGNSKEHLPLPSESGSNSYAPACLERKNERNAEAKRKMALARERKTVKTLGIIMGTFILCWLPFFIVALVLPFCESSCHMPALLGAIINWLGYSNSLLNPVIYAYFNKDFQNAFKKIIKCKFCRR
Put plainly: Binding affinity to 5HT1A receptor in rat hippocampus. Type of assay: tissue-based.

For assay [2], the target named is 5-hydroxytryptamine receptor 2A (Rattus norvegicus, UniProt P14842). Put plainly: Binding affinity to 5HT2A receptor in rat cortex. It counts as tissue-based.
The target in assay [3] is 5-hydroxytryptamine receptor 7 (Homo sapiens, UniProt P34969). The assay is described as follows: Binding affinity to human cloned 5HT7 receptor expressed in HEK293 cells. It counts as cell-based.
A short description of assay [4]: Selectivity of Ki for human 5HT7 receptor to Ki for rat 5HT1A.

5-hydroxytryptamine receptor 2A, sequence (P14842 whole entry): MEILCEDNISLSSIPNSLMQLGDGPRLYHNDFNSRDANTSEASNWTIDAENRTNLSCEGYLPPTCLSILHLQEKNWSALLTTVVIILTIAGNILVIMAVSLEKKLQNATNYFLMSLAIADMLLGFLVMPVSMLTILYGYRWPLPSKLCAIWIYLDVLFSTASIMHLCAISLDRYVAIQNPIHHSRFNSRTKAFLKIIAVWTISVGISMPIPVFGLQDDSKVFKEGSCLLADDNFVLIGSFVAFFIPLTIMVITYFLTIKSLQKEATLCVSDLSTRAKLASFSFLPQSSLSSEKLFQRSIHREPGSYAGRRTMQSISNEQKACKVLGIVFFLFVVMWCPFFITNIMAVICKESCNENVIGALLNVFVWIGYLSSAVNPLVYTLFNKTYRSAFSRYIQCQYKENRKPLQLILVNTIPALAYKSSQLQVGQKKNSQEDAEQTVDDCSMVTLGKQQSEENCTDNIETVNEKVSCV
5-hydroxytryptamine receptor 7, sequence (P34969 whole entry): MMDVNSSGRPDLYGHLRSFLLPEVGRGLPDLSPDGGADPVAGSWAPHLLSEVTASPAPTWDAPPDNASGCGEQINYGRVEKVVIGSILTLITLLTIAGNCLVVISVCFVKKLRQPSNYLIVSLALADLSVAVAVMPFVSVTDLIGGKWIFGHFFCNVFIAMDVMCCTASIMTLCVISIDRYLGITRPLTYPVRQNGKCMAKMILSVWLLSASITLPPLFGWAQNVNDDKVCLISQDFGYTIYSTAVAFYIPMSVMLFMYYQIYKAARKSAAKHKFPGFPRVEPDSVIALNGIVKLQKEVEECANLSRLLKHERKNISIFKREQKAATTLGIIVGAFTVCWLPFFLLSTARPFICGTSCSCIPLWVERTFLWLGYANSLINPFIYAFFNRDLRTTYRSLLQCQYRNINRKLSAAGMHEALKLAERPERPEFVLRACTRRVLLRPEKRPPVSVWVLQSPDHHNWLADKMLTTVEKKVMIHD

The Ki is the dissociation constant of the complex between target and ligand, obtained from inhibition or displacement. Low values mean tighter binding, high ones weaker binding. For `COc1ccccc1N1CCN(CCCNS(=O)(=O)c2ccc3ccccc3c2)CC1`, the Ki amounted to 4.6 nM in assay [1], 85 nM in assay [2] and 20 nM in assay [3].

For `COc1ccccc1N1CCN(C(=O)NC(=N)NCc2cccc3ccccc23)CC1`, the Ki in assay [1] was found to be 520 nM; in assay [2], 150 nM.

Regarding `NC(=NCCCCNS(=O)(=O)c1cccc2ccccc12)N1CCc2ccccc2C1`, the Ki was determined as 2080 nM in assay [1], 195 nM in assay [2] and 198 nM in assay [3].

Turning to `COc1ccccc1N1CCN(C(N)=NCCNS(=O)(=O)c2cccc(C)c2)CC1`, the values for the Ki in assay [1], in assay [2] and in assay [3] were 10400 nM, 1150 nM and 339 nM, respectively.

As to `CC1CCN(CCC2CCCN2S(=O)(=O)c2cccc(O)c2)CC1` (single isomer, unassigned), the inhibition constant Ki in assay [1] and in assay [2] was > 10000 nM in each case.

Consider `Cc1cccc(S(=O)(=O)NCCN=C(N)N2CCC(C)CC2)c1`, for which the Ki in assay [1] amounted to 1100 nM; in assay [2] it was 148 nM; in assay [3], 177 nM.

For the compound `Cc1cccc(S(=O)(=O)NCCCN=C(N)N2CCC(c3ccccc3)CC2)c1`, the results for the Ki in assay [1], in assay [2] and in assay [3] were 17600 nM, 1250 nM and 276 nM, respectively.

As to `COc1ccccc1N1CCN(C(N)=NCCCNS(=O)(=O)c2cccc3ccccc23)CC1`, the Ki in assay [1] turned out to be 9860 nM; in assay [2], 940 nM; in assay [3], 195 nM.

As to `Cc1cccc(S(=O)(=O)NCCCCN=C(N)N2CCC(c3ccccc3)CC2)c1`, the Ki worked out at 12000 nM in assay [1], 770 nM in assay [2] and 150 nM in assay [3].

Regarding `CCOc1ccccc1CNC(=N)NC(=O)NC`, the figures for the inhibition constant Ki in assay [1], in assay [2] and in assay [3] were > 4000 nM, 400 nM and 49 nM, respectively.

`COc1ccccc1N1CCN(C(=N)NCCNS(=O)(=O)c2cccc(C)c2)CC1`: in assay [4], the Ratio Ki came to 31.

Consider `O=S(=O)(c1ccccc1)C1(CCCN2CCc3ccccc3C2)CCC1`, for which the figures for the Ki in assay [1] and in assay [2] were 35 nM and 65 nM, respectively.

As for `Cc1cccc(S(=O)(=O)NCCN=C(N)N2CCC(c3ccccc3)CC2)c1`, the inhibition constant (Ki) in assay [1] was 4550 nM; in assay [2], 160 nM; in assay [3], 161 nM.

`COc1ccccc1N1CCN(C(=N)NCCCCNS(=O)(=O)c2ccc(C)cc2)CC1`: the Ki in assay [1] stood at 10200 nM; in assay [2] it was 340 nM; in assay [3], 140 nM.
